Patent US20070053831A1, “Methods for binding agents to b-amyloid plaques” (priority 2003, published 2007)

Experiments:
senile plaques = assay: Digital autoradiography with [18F]FDDNP of AD brain specimens pretreated with nonradioactive agents; type: binding, human
Protocol: Brain specimens from a postmortem-diagnosed definite AD patient were treated. Briefly, formalin-treated, cryoprotected brain specimens were sectioned 70 μm thick coronally mounted on gelatine-coated glass slides, allowed to dry, and were defatted for 40 min in xylene prior to rinsing of the tissue with ethanol. Finally, lipofuscin autofluorescence in some brain specimens was quenched prior to staining using 10 mM CuCl2 in 50 mM ammonium acetate buffer, pH 5. The quenching determined the origin of lipofuscin fluorescence in brain specimens. […] Pretreated and cryosections with no competitor were incubated for 25 min at room temperature with […] of [^18[…] dissolved in 10 mL of 1% ethanol in 0.9% saline (w/v) per cryosection. Following incubation, the sections were optimally washed with water (30 sec); 60% 2-methyl-2-butanol (3 min; Sigma) agitated at 40 RPMs on a Junior Orbit Shaker (Lab-Line Instruments, Melrose Park, Ill.) for differentiation (Bancroft and Stevens, 1990); and then water (30 sec). The sections were dried on a warm hot plate with a steady stream of warm air, exposed to β^+-sensitive phosphor plates for 40 min Fuji Film Medical Systems USA, Stamford, Conn.), and scanned with a FUJI BAS 5000 Phosphorimager (Fuji) at a resolution of 25 μm, as described previously ([…] et al., 2001a). […] FIG. 2Q) in the autoradiograms. Autoradiography was carried out at least in triplicate for each competitor. Statistical analysis of the autoradiograms involved one-way ANOVA with Dunnett's post test using Prism 3.02 (GraphPad, San Diego, Calif.) to compare the differences in the ratio of gray matter-to-white matter (FIG. 2Q) radioactivity of [^18]FDDNP in autoradiograms pretreated with the nonradioactive agents and without pretreatment. Unpaired t-tests were performed to compare the difference of measured [^18[…] radioactivity per area of tissue (Bq/mm^2) in the gray and white matter of each autoradiogram. The same brain specimens used for autoradiography were observed using fluorescence microscopy. Tissues were mounted with Vectashield (Vector, Burlingame, Calif.) and observed with a Nikon Labophot fluorescence microscope (Nikon USA, Melville, N.Y.) with a FITC filter set.

β-amyloid (1-40) fibrils = target: T1, β-amyloid (1-40) fibrils (Homo sapiens, UniProt P05067); assay: In vitro competition assay with [18F]FDDNP on synthetic β-amyloid (1-40) fibrils (vacuum filtration); type: binding; conditions: for Ki: synthetic β-amyloid (1-40) fibrils, 1 h, PBS pH 7.4, ±SD, read-out: Ki (decrease in the binding of [18F]FDDNP); for dose dependent decrease in the specific binding of [18F]FDDNP: 0.1 pM to 83 μM of nonradioactive agent
T1 construct: β-amyloid (1-40) (Biosource, Camarillo, Calif.) fibrils were prepared; purchased Biosource, Camarillo, Calif; host or cells: synthetic peptide
Protocol: Potential therapeutic agents were evaluated to determine their ability to bind to β-amyloid fibrils. • Amyloid (1-40) fibril formation. β-amyloid (1-40) (Biosource, Camarillo, Calif.) fibrils were prepared. 0.5 mg of β-amyloid (1-40) was dissolved in 1 mL PBS, pH 7.4 and mixed with a magnetic stir bar for 3 days at 37° C. resulting in a visibly cloudy solution. Fibrils were used immediately after their production was confirmed. The production of 13-amyloid fibrils was confirmed by imaging with a Jeol 100CX transmission electron microscope (Jeol, Peabody, Mass.). A 5 μL drop from a fibril solution was allowed to settle for 30 s on a treated copper grid before being washed away with a drop of 2% uranyl acetate solution. Finally, an additional drop of 2% uranyl acetate was added to the grid to negatively stain the fibrils. Fibrils were used immediately after their production was confirmed. Additional tests for fibril formation using Congo red (CR, Sigma) and Thioflavine T (TT, Sigma) were performed, as well. The absence of fibrils in the filtrate in the in vitro competition assays described below was determined by the same tests using CR. In vitro competition assays with [^18[…] against NSAIDs and charge amyloid dyes. Solutions of nonradioactive agents, namely (S)-naproxen (Sigma), (R)-ibuprofen (BIOMOL, Plymouth Meeting, Pa.), (S)-ibuprofen (Sigma), diclofenac (Sigma), CR and TT, were prepared fresh for each radioactive competition assay. APFF glass fiber filters (0.7 μm particle retention; Millipore, Bedford, Mass.) were used in a 1225 sampling manifold (Millipore) that was modified with stainless steel support screens (Millipore) and glass sample chambers. Vacuum filtration involved 0.865 μg/mL of in vitro fibrils of synthetic β-amyloid (1-40) and 37 MBq/mL of [^18[…] incubated for 1 h in PBS, pH 7.4 (1% ethanol) with various concentrations of the nonradioactive agents with the range of 0.1 pM to 83 μM. Each filter was then washed twice with 3 ml of PBS, pH 7.4. The radioactivity retained by the filters was measured and decay-corrected to a common reference time with a Packard Cobra II Auto-Gamma gamma counter (Packard, Meriden, Conn.). […] All competition assays were performed in triplicate. Competition results were analyzed and then Ki values calculated using the Ligand Binding Module for SigmaPlot 2001 (SPSS, Chicago, Ill.).

[1] = Storage of DDNP stock solution; type: physicochemical; conditions: 8 mM in 100% ethanol, freezer; used at 1/100 to 1/1,000 dilutions
Protocol: (§1) A 2.1 mg/mL DDNP stock solution was prepared, which was adjusted to 8 mM in 100% ethanol. A DDNP working solution was prepared by diluting the stock solution with distilled water in a ratio of 1:100-1000 (stock solution:distilled water).

[2] = tested on: amyloid plaques and tangles; assay: DDNP fluorescence labeling of brain tissue sections in vitro; parameters: species or system human
Protocol: as §1
β-amyloid 250 μM (1.25 mg/mL in distilled water) was aggregated at 37° C. for 48 hours. 5 μL were smeared on slides, air-dried and then rehydrated with distilled water. Alternatively, Aβ-positive brain tissue sections were rehydrated with distilled water. DDNP working solution was applied to each slide for 30 minutes at room temperature. The slides were washed three times for five minutes with distilled water. The slides were coverslipped with fluorescent protectant mounding media (Vectashield™, available Vector Labs., Burlingame, Calif.) and observed under a fluorescence microscope with a thioflavin S or FITC filter.

[3] = tested on: neurofibrillary tangles, amyloid peptides, and diffuse amyloid; assay: In vitro fluorescence labeling of Alzheimer's disease brain specimens with DDNP and [F-18]FDDNP; parameters: species or system human; conditions: all Alzheimer's disease brain specimens
[4] = target: T2, β-amyloid 1-40 injected into rat cortex (Homo sapiens, UniProt P05067); assay: DDNP labeling of β-amyloid injected into rat brain in vivo; conditions: rats, FIGS. 2A to 2E
T2 construct: unilateral stereotaxic injection of 3 μg of aggregated β-amyloid 1-40 into rat cortex; host or cells: exogenous peptide fibrils injected into rat brain
Protocol: β-amyloid 250 μM (1.25 mg/mL in distilled water) was aggregated at 37° C. for 48 hours to produce fibrils confirmed by smears. Three rats were anesthetized. 3 μL of a solution of Aβ fibrils (1.25 μg/μL) were injected unilaterally into the cortex of each rat (Bregma 0, AP-4.1 mm, ML+2.0 mm, DV-3.1 mm). Then 3 μL of phosphate buffered saline (PBS) were injected into the contralateral side of each rat brain as a vehicle control. After injection, the needle remained for 5 minutes to prevent reflux, and then the cranial hole was sealed with bone wax. Eight days after β-amyloid injection into the rat brains, the rats were injected with 10 microliters of DDNP working solution (320 micromolar) prepared by diluting DDNP stock solution into 1.5% BSA (bovine serum albumin) in phosphate buffered saline, pH 7.2).
After one hour, the rats were cardiac perfused with PLP fixative (4% paraformaldehyde, 1% lysin in 0.05 M phosphate buffer, pH 7.4). Additional immersion fixation of rat brain was at 4° C. overnight with PLP fixative. The rat brains were washed with PBS, saturated in 10 and 20% sucrose, and snap frozen in chilled isopentane (−70° C.) with liquid nitrogen. The brains were cryostat sectioned at […] around the needle-track and directly coverslipped with glycerol and fluorescence protectant (Vectashield™).

[5] = tested on: β-amyloid plaques and neurofibrillary tangles; assay: PET with [F-18]FDDNP in patients; type: in vivo, human
Protocol: A patient was placed in a tomograph to obtain brain dynamic PET images. 8.0 mCi of 2-(1.1-dicyanopropen-2-yl)-6-(2-[^18F]-fluoroethyl)-methylamino)-naphthalene ([F18]FDDNP) (specific activity: 5-12 Ci/micromol; mass: ˜1 nanomol), prepared as described in Example 1(f), were injected intravenously into the arm of the patient. Dynamic acquisition data of brain images were recorded simultaneously in forty-seven brain planes for two hours.
Labeling and detection of human β-amyloid plaques and neurofibrillary tangles in vivo were conducted using the following procedures. Ten human subjects, seven Alzheimer's diseased patients (ages 71 to 80) and three control patients (ages 62 to 82) were studied. The patients were positioned supine in an EXACT HR+962 tomograph (Siemens-CTI, Knoxville, Tenn.) with the imaging plane parallel to the orbito-meatal line. Venous catheterization was performed, and then [F-18]FDDNP (5-10 mCi) in human serum albumin (25%) was administered as a bolus via the venous catheter. Sequential emission scans were obtained beginning immediately after [F-18]FDDNP administration using the following scan sequence: six 30 second scans, four 3 minute scans, five 10 minute scans, and three 20 minute scans. Rapid venous blood sampling was performed via the indwelling catheter in two subjects for input function determination and plasma metabolite analysis.
The residence time shown is in reference to that in the pons, an area known to have limited involvement in Alzheimer's disease pathology. The residence time was calculated from the clearance rates of the tracer in affected regions of interest (ROI) and in the pons as: Residence time=[1/clearance rate for affected ROI]−[1/clearance rate for pons] Separate ROIs were defined in entorhinal cortex, hippocampus, lateral temporal cortex and pons. The region with the slowest clearance rate was used as the affected ROI in the calculation of the residence time shown in FIG. 4.

[6] = AD brain specimens pretreated with 100 nM agent for 60 min
[7] = AD brain specimens pretreated with 40 μM agent for 60 min
[8] = cortex of the brain of an Alzheimer's disease patient, FIG. 1B

T1 sequence (P05067 672-711 limits assumed): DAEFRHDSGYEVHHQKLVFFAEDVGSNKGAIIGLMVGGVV
T2 sequence (P05067 672-711 limits assumed): as above

CC(=C(C#N)C#N)c1ccc2cc(N(C)CCF)ccc2c1 [FDDNP]
specific binding of [18F]FDDNP to regions of gray matter with senile plaques (senile plaques; [6]): significantly reduced

CC(C)Cc1ccc([C@@H](C)C(=O)O)cc1 [(R)-ibuprofen]
Ki (β-amyloid (1-40) fibrils): 44.4 ± 17.4 µM
specific binding of [18F]FDDNP to regions of gray matter with senile plaques (senile plaques; [7]): significantly reduced

CC(=C(C#N)C#N)c1ccc2cc(N(C)C)ccc2c1 [DDNP, 2-(1,1-dicyanopropen-2-yl)-6-dimethylaminonaphthalene]
stability of stock solution [1]: can be kept in the freezer for six months and still produce acceptable results
melting point: 154.5 to 155 °C
labeling of plaques [2, 8]: strong
labeling of tangles [2, 8]: weak
labeling of amyloid deposits in cryostat and paraffin sections of AD brain tissue ([2]; fluorescence microscopy): readily labeled amyloid deposits
visualization of neurofibrillary tangles, amyloid peptides, and diffuse amyloid [3]: excellent visualization
passage of the blood brain barrier [4]: passes the blood brain barrier

CN(C)c1ccc2cc(-c3ccnc(SCCO)c3C#N)ccc2c1
melting point: 210 to 212 °C

O=C(O)Cc1ccccc1Nc1c(Cl)cccc1Cl [Diclofenac, diclofenac]
dose dependent decrease in the specific binding of [18F]FDDNP (β-amyloid (1-40) fibrils): did not exhibit a dose dependent decrease
specific binding of [18F]FDDNP to regions of gray matter with senile plaques (senile plaques; [7]): minimal effect

CN(C)c1ccc2cc(-c3ccnc(Cl)c3C#N)ccc2c1
melting point: 198 to 200 °C

COc1ccc2cc([C@H](C)C(=O)O)ccc2c1 [(S)-naproxen]
Ki (β-amyloid (1-40) fibrils): 0.0057 ± 0.00131 µM
specific binding of [18F]FDDNP to regions of gray matter with senile plaques (senile plaques; [6]): significantly reduced

CN(C)c1ccc2cc(-c3ccnc(N)c3C#N)ccc2c1.O
melting point: 256 to 257 °C

CN(C)c1ccc2cc(-c3ccn4ccnc4c3C#N)ccc2c1
melting point: 268 to 269 °C

CN(C)/C=C/C(=C(C#N)C#N)c1ccc2cc(N(C)C)ccc2c1
melting point: 213 to 215 °C

CC(=C(C#N)C#N)c1ccc2cc(N(C)CC[18F])ccc2c1 [[F-18]FDDNP]
visualization of neurofibrillary tangles, amyloid peptides, and diffuse amyloid [3]: excellent visualization
estimated residence time (in reference to pons) ([5]; Alzheimer's diseased patients versus control patients, FIG. 4): different from values in control patients
regional clearance from brain ([5]; brain areas known to accumulate β-amyloid plaques and neurofibrillary tangles): slower clearance
crossing of the blood brain barrier ([5]; human, intravenous injection): crosses the blood brain barrier readily in proportion to blood flow

CC(C)Cc1ccc([C@H](C)C(=O)O)cc1 [(S)-ibuprofen]
Ki (β-amyloid (1-40) fibrils): 11.3 ± 5.2 µM
specific binding of [18F]FDDNP to regions of gray matter with senile plaques (senile plaques; [7]): significantly reduced

CN(C)c1ccc2cc(C(/C=C\NCCO)=C(C#N)C#N)ccc2c1
melting point: 168 to 170 °C

Nc1c(/N=N/c2ccc(-c3ccc(/N=N/c4cc(S(=O)(=O)O)c5ccccc5c4N)cc3)cc2)cc(S(=O)(=O)O)c2ccccc12 [CR, Congo red]
dose dependent decrease in the specific binding of [18F]FDDNP (β-amyloid (1-40) fibrils): did not exhibit a dose dependent decrease
specific binding of [18F]FDDNP to regions of gray matter with senile plaques (senile plaques; [7]): minimal effect

Cc1ccc2c(c1)sc(-c1ccc(N(C)C)cc1)[n+]2C.[Cl-] [TT, Thioflavine T]
dose dependent decrease in the specific binding of [18F]FDDNP (β-amyloid (1-40) fibrils): did not exhibit a dose dependent decrease
specific binding of [18F]FDDNP to regions of gray matter with senile plaques (senile plaques; [7]): minimal effect

COc1nccc(-c2ccc3cc(N(C)C)ccc3c2)c1C#N
melting point: 150 to 151 °C
